Source: ChEMBL document CHEMBL1201862, “PubChem BioAssay data set” (2004)
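In this assay, cells in 96-well plates receive the compound at five concentrations for 48 hours. Endpoints are linearly interpolated between the surrounding concentrations. GI50: concentration for 50% inhibition of growth.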 The source made the active and inactive calls. Rule as the data show it: active = GI50 up to about 1.1 µM and inactive = higher.

Columns and labels:
Experiment in all cases: inhibition of tumour cell growth, NCI panel, 48 h
OVCAR-3 = system: OVCAR-3
UACC-62 = system: UACC-62
NCI-H23 = system: NCI-H23
Malme-3M = system: Malme-3M
SN12C = system: SN12C
SR = system: SR
K562 = system: K562
RPMI-8226 = system: RPMI-8226
SW-620 = system: SW-620
HCC 2998 = system: HCC 2998
COLO 205 = system: COLO 205
LOX IMVI = system: LOX IMVI
HOP-62 = system: HOP-62
SF-539 = system: SF-539
U-251 = system: U-251
SNB-75 = system: SNB-75
OVCAR-8 = system: OVCAR-8
OVCAR-4 = system: OVCAR-4
786-0 = system: 786-0
EKVX = system: EKVX

Measured: GI50

O=C1CC(=O)N(CCc2ccccc2)S(=O)(=O)N1CCc1ccccc1
inactive: OVCAR-3 16.9 µM | UACC-62 25.9 µM | NCI-H23 25 µM | Malme-3M 26 µM | SN12C 33 µM | SR 22.7 µM | K562 23.7 µM | RPMI-8226 24.4 µM | SW-620 31.8 µM | HCC 2998 86.9 µM | COLO 205 22.4 µM | LOX IMVI 1.91 µM | HOP-62 36.2 µM | SF-539 22.6 µM | U-251 16.9 µM | SNB-75 23.1 µM | OVCAR-8 > 10 µM | OVCAR-4 19.8 µM | 786-0 17.1 µM

C=CCNc1nc2c(s1)C(=O)c1ccccc1C2=O
inactive: OVCAR-3 12.1 µM | UACC-62 3.9 µM | NCI-H23 4.4 µM | Malme-3M 12.5 µM | SN12C 11.6 µM | SR 3.43 µM | K562 4.76 µM | RPMI-8226 3.12 µM | SW-620 12.9 µM | HCC 2998 20.7 µM | COLO 205 20.1 µM | LOX IMVI 4.31 µM | HOP-62 13.4 µM | SF-539 8.11 µM | U-251 7.55 µM | SNB-75 18.7 µM | OVCAR-8 3.73 µM | OVCAR-4 7.87 µM | EKVX 15.6 µM | 786-0 14.5 µM

O=C1CNC(=O)c2[nH]cnc2N1
inactive: OVCAR-3 > 100 µM | UACC-62 > 100 µM | NCI-H23 > 100 µM | Malme-3M > 100 µM | SN12C > 100 µM | SR > 100 µM | K562 82.6 µM | RPMI-8226 > 100 µM | SW-620 > 100 µM | HCC 2998 > 100 µM | COLO 205 > 100 µM | LOX IMVI > 100 µM | SF-539 > 100 µM | U-251 > 100 µM | SNB-75 > 100 µM | OVCAR-8 > 100 µM | OVCAR-4 > 100 µM | EKVX > 100 µM | 786-0 > 100 µM

O=C(NC12CC3CC(CC(C3)C1)C2)C(=O)c1c[nH]c2ccc(Cl)cc12
inactive: OVCAR-3 13.8 µM | UACC-62 40.1 µM | NCI-H23 > 100 µM | Malme-3M 34.9 µM | SN12C 56.1 µM | SR 54.5 µM | K562 3.8 µM | RPMI-8226 19.9 µM | HCC 2998 32.9 µM | COLO 205 81.8 µM | LOX IMVI 10.1 µM | HOP-62 7.13 µM | SF-539 16.5 µM | U-251 56.5 µM | SNB-75 20.9 µM | OVCAR-4 21.2 µM | EKVX > 100 µM | 786-0 6.24 µM

Cc1noc(NS(=O)(=O)c2ccc(NC(=O)c3ccc4nc5ccccc5c(Nc5ccc(S(=O)(=O)Nc6onc(C)c6C)cc5)c4c3)cc2)c1C
inactive: OVCAR-3 70.3 µM | UACC-62 > 100 µM | NCI-H23 > 100 µM | Malme-3M > 100 µM | SN12C > 100 µM | SR 42 µM | K562 25.5 µM | RPMI-8226 36.2 µM | SW-620 97.7 µM | HCC 2998 > 100 µM | COLO 205 > 100 µM | LOX IMVI 21 µM | HOP-62 > 100 µM | SF-539 > 100 µM | U-251 > 100 µM | SNB-75 > 100 µM | OVCAR-8 > 100 µM | OVCAR-4 > 100 µM | EKVX > 100 µM | 786-0 56.8 µM

CCOC1OC(COC(=O)C(C)(C)C)C(O)CC1n1cc(C)c(=O)[nH]c1=O (stereo not given)
inactive: OVCAR-3 > 100 µM | UACC-62 > 100 µM | NCI-H23 > 100 µM | Malme-3M > 100 µM | SN12C > 100 µM | SR > 100 µM | K562 > 100 µM | RPMI-8226 > 100 µM | SW-620 > 100 µM | HCC 2998 > 100 µM | COLO 205 > 100 µM | LOX IMVI > 100 µM | SF-539 > 100 µM | U-251 > 100 µM | SNB-75 > 100 µM | OVCAR-8 > 100 µM | OVCAR-4 > 100 µM | EKVX > 100 µM | 786-0 > 100 µM

CCOC(=O)c1ccc(NC(=O)O/N=C(/Cl)CCl)cc1
inactive: OVCAR-3 37.6 µM | NCI-H23 78.5 µM | Malme-3M 81.1 µM | SN12C 84.9 µM | SR 27.2 µM | K562 25.2 µM | RPMI-8226 47.2 µM | SW-620 50.2 µM | HCC 2998 > 10 µM | COLO 205 39.6 µM | LOX IMVI 50.1 µM | HOP-62 > 100 µM | SF-539 69 µM | U-251 39.4 µM | SNB-75 4.01 µM | OVCAR-8 41 µM | OVCAR-4 71.1 µM | EKVX 23.5 µM | 786-0 > 100 µM

CCOC(CCNCC(OCC)OCC)OCC
inactive: OVCAR-3 > 10 µM | UACC-62 > 10 µM | NCI-H23 > 10 µM | Malme-3M > 10 µM | SN12C > 10 µM | SR > 10 µM | K562 > 10 µM | RPMI-8226 > 10 µM | HCC 2998 > 10 µM | COLO 205 > 10 µM | LOX IMVI > 10 µM | HOP-62 > 10 µM | SF-539 > 10 µM | U-251 > 10 µM | SNB-75 > 10 µM | OVCAR-8 > 10 µM | OVCAR-4 > 10 µM | EKVX > 10 µM | 786-0 > 10 µM

CC1CN=C(N(C(=O)Nc2ccccc2)c2ccccc2)S1 (stereo not given)
inactive: OVCAR-3 24.9 µM | NCI-H23 35.4 µM | Malme-3M 23 µM | SN12C 25.2 µM | SR 27.2 µM | K562 43.9 µM | RPMI-8226 26 µM | SW-620 41.5 µM | HCC 2998 35.9 µM | COLO 205 59.3 µM | LOX IMVI 18.8 µM | HOP-62 39.9 µM | SF-539 > 10 µM | U-251 37.7 µM | SNB-75 13.3 µM | OVCAR-8 40.3 µM | OVCAR-4 19.5 µM | EKVX 29 µM | 786-0 39.5 µM

C=C(C)C1CC=C(C)C(O)([C@@]2(O)C[C@H](C(=C)C)CC=C2C)C1 (stereo not given in full)
inactive: OVCAR-3 13.4 µM | UACC-62 19.8 µM | NCI-H23 17.3 µM | Malme-3M 22.8 µM | SN12C 18.3 µM | SR 21.7 µM | K562 22.2 µM | RPMI-8226 20.5 µM | SW-620 26.7 µM | HCC 2998 16.4 µM | LOX IMVI 13.9 µM | HOP-62 16.9 µM | SF-539 19.8 µM | U-251 16.7 µM | SNB-75 15.4 µM | OVCAR-8 17.2 µM | OVCAR-4 19 µM | 786-0 16.8 µM
